Data from patent US7816331B2, “Substituted indazole-O-glucosides” (Janssen Pharmaceutica NV, priority 2003, dated 2010).

Assays:
human SGLT2 = target: T1, human SGLT2 (Homo sapiens, UniProt P31639); experiment: Cell-based assay for sodium-dependent glucose transport (14C-AMG uptake), CHOK-SGLT2; settings: for IC50: CHO-K1 cells stably expressing human SGLT2, Na-dependent 14C-AMG uptake, read-out: CHOK-SGLT2 IC50 (uM) ± SEM; for inhibition at 10 µM: CHO-K1, read-out: CHOK-SGLT2 % Inh. @ 10 μM
T1 construct: expressed in transfected cells
T1 sequence (P31639 1-672): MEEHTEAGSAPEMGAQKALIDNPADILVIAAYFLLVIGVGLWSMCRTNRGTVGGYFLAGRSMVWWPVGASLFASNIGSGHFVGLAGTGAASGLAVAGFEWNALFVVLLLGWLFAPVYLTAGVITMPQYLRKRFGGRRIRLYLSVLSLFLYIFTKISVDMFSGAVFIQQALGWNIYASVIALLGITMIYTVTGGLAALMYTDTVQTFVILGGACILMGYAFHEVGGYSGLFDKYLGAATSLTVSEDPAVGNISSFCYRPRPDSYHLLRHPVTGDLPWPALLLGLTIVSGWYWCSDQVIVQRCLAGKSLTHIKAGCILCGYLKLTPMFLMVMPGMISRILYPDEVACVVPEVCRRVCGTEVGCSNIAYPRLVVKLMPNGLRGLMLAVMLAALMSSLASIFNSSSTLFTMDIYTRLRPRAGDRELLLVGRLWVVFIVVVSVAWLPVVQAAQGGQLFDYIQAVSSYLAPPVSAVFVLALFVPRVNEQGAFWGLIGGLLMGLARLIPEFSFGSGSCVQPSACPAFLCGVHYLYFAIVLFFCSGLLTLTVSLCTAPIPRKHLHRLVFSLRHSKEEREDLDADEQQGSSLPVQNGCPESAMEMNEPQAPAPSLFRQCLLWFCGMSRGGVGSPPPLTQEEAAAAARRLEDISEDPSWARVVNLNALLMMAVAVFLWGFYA
Protocol: (§1) Cloning of the human SGLT1 and human SGLT2 cDNAs and construction of the mammalian expression vector: The human SGLT1 cDNA (Genbank M24847) was cloned from human small intestine. Human SGLT2 cDNA (Genbank M95549) was cloned from human kidney. Both full cDNAs were subcloned into pcDNA and sequenced to verify the integrity of the construct. Generation of CHO-K1 cells stably expressing human SGLT1 or human SGLT2: Transfection of CHO-K1 cells was performed using DMRIE-C reagent (Life Technologies, Gaithersburg, Md.). Transfectants were then selected in the presence of the antibiotic G418 (Gibco-BRL, Grand Island, N.Y.) at 400 μg/ml. Individual clones were then characterized using the functional assay described below. Cell-based assay for sodium-dependent glucose transport: Cell lines stably expressing human SGLT1 or SGLT2 were then used for functional analysis of Na^+-dependent glucose uptake. Briefly, cells were plated at a density of 65,000 cells per well in a 96-well plate and allowed to grow for 48 hours. Cells were subsequently washed one time with Assay Buffer (50 mM HEPES pH 7.4, 20 mM Tris, 5 mM KCl, 1 mM MgCl2, 1 mM CaCl2 and 137 mM NaCl) and treated with compound in the absence or presence of NaCl for 15 minutes. Cells were then labeled with ^14C-α-methylglucopyranoside (AMG, Sigma, St. Louis, Mo.), a non-metabolizable glucose analog specific for sodium-dependent glucose transporters as previously described (Peng, H. and Lever J. E. Post-transcriptional regulation of Na^+/glucose cotransporter (SGLT1) gene expression in LLC-PK1 cells. J Biol Chem 1995; 270:20536-20542.). After 2 hours the labelled cells were washed three times with ice-cold PBS. After aspiration, cells were solubilized using Microscint 20 (Packard, Meriden, Conn.) and Na-dependent ^14C-AMG uptake was quantified by measuring radioactivity. Plates were counted in a TopCount (Packard, Meriden, Conn.). Results are reported as the % inhibition or IC50 value from a representative experiment.

human SGLT1 = target: T2, human SGLT1 (Homo sapiens, UniProt P13866); experiment: Cell-based assay for sodium-dependent glucose transport (14C-AMG uptake), CHOK-SGLT1; settings: 10 uM compound, CHO-K1 cells stably expressing human SGLT1, Na-dependent 14C-AMG uptake; for inhibition at 10 µM: read-out: CHOK-SGLT1 % Inh (10 uM)
T2 construct: expressed in transfected cells
T2 sequence (P13866 1-664): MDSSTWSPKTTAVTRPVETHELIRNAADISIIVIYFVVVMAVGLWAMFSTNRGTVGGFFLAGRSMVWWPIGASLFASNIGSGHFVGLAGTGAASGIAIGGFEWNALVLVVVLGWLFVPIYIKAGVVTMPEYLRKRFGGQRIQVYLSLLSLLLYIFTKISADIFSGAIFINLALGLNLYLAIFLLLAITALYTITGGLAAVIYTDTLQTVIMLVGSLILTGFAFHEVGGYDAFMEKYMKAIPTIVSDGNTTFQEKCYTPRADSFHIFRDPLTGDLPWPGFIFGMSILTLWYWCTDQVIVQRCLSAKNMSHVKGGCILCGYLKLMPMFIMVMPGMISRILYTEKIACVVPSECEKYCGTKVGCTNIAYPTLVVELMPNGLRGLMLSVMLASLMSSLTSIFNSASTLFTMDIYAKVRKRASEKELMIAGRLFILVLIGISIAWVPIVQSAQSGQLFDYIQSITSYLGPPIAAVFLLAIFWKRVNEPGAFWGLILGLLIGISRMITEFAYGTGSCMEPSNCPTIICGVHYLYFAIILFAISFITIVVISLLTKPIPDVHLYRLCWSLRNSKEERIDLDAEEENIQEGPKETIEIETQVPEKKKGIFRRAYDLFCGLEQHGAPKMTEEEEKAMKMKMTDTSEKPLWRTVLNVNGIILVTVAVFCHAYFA
Protocol: as §1, with “experiment. Variability for the functional assay was typically within 20%.” for “experiment.”

Compound | IC50 (human SGLT2) | inhibition at 10 µM (human SGLT1) | CHOK-SGLT1 % Inh (10 uM) (human SGLT1) | inhibition at 10 µM (human SGLT2)
Cc1cc(OC2OC(CO)C(O)C(O)C2O)c2c(CCc3ccc4c(c3)CCCC4)n[nH]c2c1 [Example 5, 2-{6-Methyl-3-[2-(5,6,7,8-tetrahydro-naphthalen-2-yl)-ethyl]-1H-indazol-4-yloxy}-β-D-glucopyranoside] | 3.25 ± 0.461 µM |  | inactive | 
Cc1cc(OC2OC(CO)C(O)C(O)C2O)c2c(CCc3ccc4c(c3)CCO4)nn(C)c2c1 [Example 15, 2-{3-[2-(2,3-Dihydro-benzofuran-5-yl)-ethyl]-1,6-dimethyl-1H-indazol-4-yloxy}-β-D-glucopyranoside] | 0.754 ± 0.069 µM | 47% |  | 
COc1ccc2cc(CCc3n[nH]c4cc(C)cc(OC5OC(CO)C(O)C(O)C5O)c34)ccc2c1 [Example 6, 2-{3-[2-(6-Methoxy-naphthalen-2-yl)-ethyl]-6-methyl-1H-indazol-4-yloxy}-β-D-glucopyranoside] | 1 µM | 7% |  | 
Cc1cc(OC2OC(CO)C(O)C(O)C2O)c2c(CCc3ccc(NS(C)(=O)=O)cc3)n[nH]c2c1 [Example 16, 2-{3-[2-(4-Methanesulfonylamino-phenyl)-ethyl]-6-methyl-1H-indazol-4-yloxy}β-D-glucopyranoside] |  |  | inactive | 42%
COc1ccc2c(c1)CCC(CCc1n[nH]c3cc(C)cc(OC4OC(CO)C(O)C(O)C4O)c13)C2 [Example 8, 2-{3-[2-(6-Methoxy-1,2,3,4-tetrahydro-naphthalen-2-yl)-ethyl]-6-methyl-1H-indazol-4-yloxy}-β-D-glucopyranoside] |  |  | inactive | 67%
COC1CCc2cc(CCc3n[nH]c4cc(C)cc(OC5OC(CO)C(O)C(O)C5O)c34)ccc2C1 [Example 7, 2-{3-[2-(6-Methoxy-5,6,7,8-tetrahydro-naphthalen-2-yl)-ethyl]-6-methyl-1H-indazol-4-yloxy}β-D-glucopyranoside] |  |  | inactive | 43%

More lines, now with the values ahead:

IC50 (human SGLT2) | inhibition at 10 µM (human SGLT1) | CHOK-SGLT1 % Inh (10 uM) (human SGLT1) | inhibition at 10 µM (human SGLT2) | Compound
1.2 ± 0.071 µM | 43% |  |  | OC[C@H]1O[C@@H](Oc2cccc3[nH]nc(CCc4ccc5occc5c4)c23)[C@H](O)[C@@H](O)[C@@H]1O [Example 18]
 |  | inactive | 40% | Cc1cc(O[C@@H]2O[C@H](CO)[C@@H](O)[C@H](O)[C@H]2O)c2c(Cc3ccc4c(c3)CCO4)n[nH]c2c1 [Example 22, 2-[3-(2,3-Dihydro-benzofuran-5-ylmethyl)-6-methyl-1H-indazol-4-yloxy]-β-D-glucopyranoside]
0.959 ± 0.118 µM |  | inactive |  | COc1ccc(Cc2n[nH]c3cc(C)cc(O[C@@H]4O[C@H](CO)[C@@H](O)[C@H](O)[C@H]4O)c23)cc1 [Example 21, 2-[3-(4-Methoxy-benzyl)-6-methyl-1H-indazol-4-yloxy]-β-D-glucopyranoside]
